Experimental data from patent US5480777A (priority 1995, dated 1996).
Several values for one entry are separate records, joined by “and”; a condition that tells them apart may be missing. Equal values may be shown once.

System: phosphoenolpyruvate carboxylase (PEPC)
Assay type: biochemical, wheat germ

SMILES: [K+].[O-][Cl+3]([O-])([O-])[O-] [KClO4]
- T1/2 (half-life seconds): 1.73 min
- k × 10^3: 6.3

SMILES: N#CS [KSCN, potassium thiocyanate]
- k × 10^3: 4.67 and 4.70 and 4.72 and 4.62 and 4.55 and 4.46

SMILES: [I-].[K+] [KI]
- k × 10^3: 12

SMILES: [K+].[O-][Cl+2]([O-])[O-] [KClO3]
- k × 10^3: 24
